Holding throughout (assay type): in vivo
In assay [1] the test system is common waterhemp (Amaranthus rudis; AMATA). The assay is described as follows: Greenhouse foliar application, visual herbicidal activity on AMATA. The following applies: 14 to 21 days after application. The text has this: (§1) 2,4-D (dimethylamine salt), dichlorprop (potassium salt) and Glyphomax XRT® herbicide (isopropylamine salt) alone and in combinations were applied to the foliage of rapidly growing plant material utilizing a track sprayer calibrated to deliver an application volume of 187 L/ha. Treated plant material was maintained in a greenhouse that provided a 16-hr photoperiod, supplemented with metal halide-generated light, set to provide a minimum of 500 μmolm^−2s^−1. The greenhouse was maintained at a temperature of 26 to 28° C. and a relative humidity of 50 to 70%. Assessment of herbicidal activity was performed visually 14 to 21 days after application.
(§2) The expected growth reduction of plant species from the combination of herbicides was calculated utilizing the Colby equation:
(§3) Expected growth reduction (E)=X+Y−(X*Y/100)
(§4) where X is % of growth reduction of a weed at a given concentration of a herbicide (or herbicide formulation) and Y is the % growth reduction of the same species and size weed at a given concentration of an independent herbicide (or herbicide formulation).

Assay [2] has as its system ivyleaf morning glory (Ipomoea hederacea; IPOHE). Description: Greenhouse foliar application, visual herbicidal activity on IPOHE. The following applies: 14 to 21 days after application.
From the text: as §1, §2, §3, §4

In assay [3] the test system is common ragweed (Ambrosia artemesifolia; AMBEL). Description: Greenhouse foliar application, visual herbicidal activity on AMBEL. The following applies: 14 to 21 days after application.
From the text: as §1, §2, §3, §4

Assay [4] relates to Canada thistle (Cirsium arvense; CIRAR). Description: Greenhouse foliar application, visual herbicidal activity on CIRAR. Particulars: 14 to 21 days after application.
From the text: as §1, §2, §3, §4

In assay [5] the test system is glyphosate-resistant Conyza canadensis (ERICA). The assay is described as follows: Greenhouse foliar application, visual herbicidal activity on glyphosate-resistant ERICA. Particulars: 14 to 21 days after application.
From the text: as §1, §2, §3, §4

In assay [6] the test system is glyphosate-resistant horseweed (ERICA, Conyza canadensis). Description: Field study at Church Hill, Md., percent visual control of glyphosate-resistant horseweed. The following applies: 29 days after application. Here is the method: as §2, §3, §4
A field study was conducted at Church Hill, Md. where glyphosate-resistant horseweed (ERICA, Conyza canadensis) had been observed for 2-3 years prior to the start of this study. The study design was a split-plot with 4 replications per treatment and each plot was 3.048 M wide and 9.144 M long. The environmental conditions at the time of application were as follows: air temperature, 22° C.; wind speed, 6 kph; wind direction, south; releative humidity, 85%; cloud cover, 80%; target foliage moisture, none; soil moisture, moist; soil temperature at 5 cm depth, 21° C. The treatments were applied using a backpack CO2 sprayer, with six XR8003 flat fan nozzles spaced 46 cm apart (boom length: 2.76 M) and held 40 cm above the plant canopy. The sprayer was operated at 103 kPa and 4.8 kilometers per hour to deliver 187 L of water per hectare. At the time of applications the glyphosate-resistant horseweed were 30-38 cm tall and there were between 10 and 20 plants per square meter (m^2). The percent visual control of glyphosate-resistant horseweed was rated over the entire plot (27.87 m^2) 29 days after application. In each plot between 278 and 557 glyphosate-resistant horseweed plants were rated, collectively, for percent visual control.

In assay [7] the test system is field bindweed (Polygonum convolvulus; POLCO). The assay is described as follows: Greenhouse foliar application, visual herbicidal activity on POLCO. The following applies: 14 to 21 days after application.
From the text: as §1, §2, §3, §4

Assay [8] relates to hemp sesbania (Sesbania exaltata; SEBEX). The assay is described as follows: Greenhouse foliar application, visual herbicidal activity on SEBEX. Particulars: 14 to 21 days after application.
From the text: as §1, §2, §3, §4

The subject of assay [9] is glyphosate-susceptible Conyza canadensis (ERICA). The assay is described as follows: Greenhouse foliar application, visual herbicidal activity on glyphosate-susceptible ERICA. Particulars: 14 to 21 days after application.
From the text: as §1, §2, §3, §4

The test system of assay [10] is spiderwort (Commelina benghalensis; COMBE). Description: Greenhouse foliar application, visual herbicidal activity on COMBE. The following applies: 14 to 21 days after application.
From the text: as §1, §2, §3, §4

The test system of assay [11] is velvetleaf (Abutilon theophrasti; ABUTH). Description: Greenhouse foliar application, visual herbicidal activity on ABUTH. The following applies: 14 to 21 days after application.
From the text: as §1, §2, §3, §4

Assay [12] deals with prickly sida (Sida spinosa; SIDSP). Description: Greenhouse foliar application, visual herbicidal activity on SIDSP. The following applies: 2,4-D 140 g ae/ha alone, 14 to 21 days after application.
From the text: as §1, §2, §3, §4

As for `O=C(O)COc1ccc(Cl)cc1Cl` [2,4-D, 2,4-dichlorophenoxy acetic acid], the “Actual Injury (% growth reduction)” value in [1] (2,4-D 280 g ae/ha alone) is given as 53 % growth reduction; in assay [2] (2,4-D 70 g ae/ha alone) it was 17 % growth reduction; in assay [3] (2,4-D 140 g ae/ha alone), 61 % growth reduction; in [4] (2,4-D 280 g ae/ha alone) it was 38 % growth reduction; in [5] (2,4-D 70 g ae/ha alone) it was 38 % growth reduction; in [6] (2,4-D 280 g ae/ha alone), 12.5 % growth reduction. In addition, the “Actual Injury (% growth reduction)” value is 23.0 % growth reduction in [6] (2,4-D 560 g ae/ha alone); 36.3 % growth reduction in assay [6] (2,4-D 1120 g ae/ha alone); 32 % growth reduction in assay [7] (2,4-D 280 g ae/ha alone); 37 % growth reduction in assay [8] (2,4-D 280 g ae/ha alone); 47 % growth reduction in [9] (2,4-D 35 g ae/ha alone); 48 % growth reduction in [10] (2,4-D 140 g ae/ha alone). For the same compound, the “Actual Injury (% growth reduction)” value was determined as 28 % growth reduction in assay [11] (2,4-D 280 g ae/ha alone) and 17 % growth reduction in assay [12].
Take `CC(Oc1ccc(Cl)cc1Cl)C(=O)O` (stereo not drawn) [Dichlorprop, 2,4-dichlorophenoxy propionic acid]: the “Actual Injury (% growth reduction)” value in [1] (Dichlorprop 280 g ae/ha alone) is given as 48 % growth reduction; in assay [2] (Dichlorprop 70 g ae/ha alone), 68 % growth reduction; in [3] (Dichlorprop 280 g ae/ha alone) it was 58 % growth reduction; in [4] (Dichlorprop 70 g ae/ha alone), 48 % growth reduction; in assay [5] (Dichlorprop 210 g ae/ha alone), 43 % growth reduction; in assay [7] (Dichlorprop 140 g ae/ha alone), 38 % growth reduction. The “Actual Injury (% growth reduction)” value in assay [8] (Dichlorprop 140 g ae/ha alone) is recorded as 38 % growth reduction; in assay [9] (Dichlorprop 210 g ae/ha alone) it was 43 % growth reduction; in assay [10] (Dichlorprop 70 g ae/ha alone), 80 % growth reduction; in [11] (Dichlorprop 70 g ae/ha alone) it was 33 % growth reduction.
